Source: patent US20170305922A1, “CARM1 INHIBITORS AND USES THEREOF” (Epizyme, Inc., priority 2014, published 2017)

Experiments:
Human CARM1 (PRMT4) = molecular target: T1, Human CARM1 (PRMT4) (Homo sapiens, UniProt Q86X55); assay: CARM1 enzyme assay on peptide substrates (3H-SAM Flashplate); conditions: Biochemical assay; CARM1 0.25 nM, 3H-SAM 30 nM, peptide 250 nM; read-out: Biochem IC50
T1 construct: Flag-CARM1-His was eluted with 200 ug/ml FLAG peptide in buffer A; made in house; host or cells: HEK 293F cells infected with recombinant baculovirus (pFastBacMam)
T1 sequence (Q86X55 1-585 isoform Q86X55-1): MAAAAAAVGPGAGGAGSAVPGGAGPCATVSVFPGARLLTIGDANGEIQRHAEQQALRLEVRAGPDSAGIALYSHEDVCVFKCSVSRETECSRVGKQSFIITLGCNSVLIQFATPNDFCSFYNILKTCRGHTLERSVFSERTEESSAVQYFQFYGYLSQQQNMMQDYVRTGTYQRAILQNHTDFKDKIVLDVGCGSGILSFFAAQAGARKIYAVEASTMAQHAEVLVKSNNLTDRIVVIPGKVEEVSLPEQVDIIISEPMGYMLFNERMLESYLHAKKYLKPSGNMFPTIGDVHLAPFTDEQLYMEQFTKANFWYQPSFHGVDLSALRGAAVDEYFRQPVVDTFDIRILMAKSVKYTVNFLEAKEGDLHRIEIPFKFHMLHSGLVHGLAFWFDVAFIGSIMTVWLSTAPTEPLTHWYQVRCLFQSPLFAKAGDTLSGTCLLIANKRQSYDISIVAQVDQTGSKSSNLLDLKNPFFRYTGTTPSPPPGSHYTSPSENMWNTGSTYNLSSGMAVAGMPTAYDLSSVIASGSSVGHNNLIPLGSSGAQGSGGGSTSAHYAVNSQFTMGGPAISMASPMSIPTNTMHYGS

[1] = test system: asymmetric di-methyl PABP1 in RKO cells; assay: RKO methylation assay: In Cell Western (ICW) for asymmetric di-methyl PABP1 (PABP1me2a); conditions: Cellular-based (PABP1me2a) ICW (In Cell Western) assay
Method in brief: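 In-cell western on compound-exposed RKO cells (48 hours): asymmetric di-methyl PABP1 detected by antibody at 800 nm, DNA content by DRAQ5 at 700 nm. Percent inhibition from signal ratios against DMSO (minimum) and 20 μM reference compound (maximum) wells; IC50 curves fitted from triplicates.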

| IC50 (Human CARM1 (PRMT4)) [nM] | IC50 ([1]; Homo sapiens, RKO, 48 h) [nM] | IC50 ([1]; 48 hours) [nM] | SMILES |
| --- | --- | --- | --- |
| 9.3 | 445 | – | CC[C@H]1CN(c2nc(-c3cc(OC[C@H](O)CNC)ccc3Cl)nc(-c3c(C)noc3C)c2C)CCN1CC(F)F [Example 225] |
| 4.6 | 134 | – | CCc1noc(C)c1-c1nc(-c2cc(OC[C@H](O)CNC)ccc2Cl)nc(N2Cc3cccnc3C2)c1C [Example 226] |
| 8 | 59 | – | CCc1onc(C)c1-c1nc(-c2cc(OC[C@H](O)CNC)ccc2Cl)nc(N2CC3(CN(CC(F)(F)F)C3)C2)c1C [Example 227] |
| 4.7 | 73 | – | CNC[C@@H](O)COc1ccc(Cl)c(-c2nc(-c3c(C)noc3C)c(C)c(N3CC4(CC(OC(F)(F)F)C4)C3)n2)c1 [Example 228] |
| 1.9 | 14 | – | CNC[C@@H](O)COc1ccc(Cl)c(-c2nc(-c3c(C)noc3C)c(C)c(N3Cc4ccc(N5CC(OC)C5)nc4C3)n2)c1 [Example 229] |
| 4.6 | 41 | – | CCOC1CC2(C1)CN(c1nc(-c3cc(OC[C@H](O)CNC)ccc3Cl)nc(-c3c(C)noc3C)c1C)C2 [Example 231] |
| 4.9 | 348 | – | CNC[C@@H](O)COc1ccc(Cl)c(-c2nc(-c3c(C)noc3C)c(C)c(N3CCN(C(=O)OCC(F)F)CC3)n2)c1 [Example 232] |
| 4.3 | 29 | – | CNC[C@@H](O)COc1ccc(Cl)c(-c2nc(-c3c(C)c(Cl)nn3C)c(C)c(N3CC4(CN(CC(F)(F)F)C4)C3)n2)c1 [Example 233] |
| 6.1 | 105 | – | CNC[C@@H](O)COc1ccc(Cl)c(-c2nc(-c3c(C)noc3C)c(C)c(N3CC4(CCC(OC(F)(F)F)CC4)C3)n2)c1 [Example 234] |
| 0.7 | 54 | – | CNC[C@@H](O)COc1ccc(Cl)c(-c2nc(-c3c(C)noc3C)c(C)c(N3Cc4nccc(OCC(F)F)c4C3)n2)c1 [Example 235] |
| 1.8 | 63 | – | CNC[C@@H](O)COc1ccc(Cl)c(-c2nc(-c3c(C)noc3C)c(C)c(N3Cc4nccc(OC)c4C3)n2)c1 [Example 236] |
| 0.6 | 157 | – | CNC[C@@H](O)COc1ccc(Cl)c(-c2nc(-c3c(C)noc3C)c(C)c(N3CC4=C(CN(C)CC4)C3)n2)c1 [Example 237] |
| 5 | 116 | – | CNC[C@@H](O)COc1ccc(Cl)c(-c2nc(-c3c(C)c(Br)nn3C)c(C)c(N3CC4(CC(OC(F)(F)F)C4)C3)n2)c1 [Example 238] |
| 4.7 | 52 | – | CNC[C@@H](O)COc1ccc(Cl)c(-c2nc(-c3c(C)noc3C)c(C)c(N3CC4(CC(OC(=O)OC)C4)C3)n2)c1 [Example 239] |
| 4.1 | 398 | – | CNC[C@@H](O)COc1ccc(Cl)c(-c2nc(-c3c(C)noc3C)c(C)c(N3CC(C)(C#N)C3)n2)c1 [Example 240] |
| 6.2 | 84 | – | CNC[C@@H](O)COc1ccc(Cl)c(-c2nc(-c3c(C)noc3C)c(C)c(N3CC4(CC(OCCOC)C4)C3)n2)c1 [Example 241] |
| 0.8 | 37 | – | CNC[C@@H](O)COc1ccc(Cl)c(-c2nc(-c3c(Br)cnn3C)c(C)c(N3Cc4ccc(N5CCC5)nc4C3)n2)c1 [Example 243] |
| 1.2 | 141 | – | CNC[C@@H](O)COc1ccc(Cl)c(-c2nc(-c3c(I)cnn3C)c(C)c(N3Cc4cccnc4C3)n2)c1 [Example 244] |
| 2 | 38 | – | CCOc1ccc2c(n1)CN(c1nc(-c3cc(OC[C@H](O)CNC)ccc3Cl)nc(-c3c(C)noc3C)c1C)C2 [Example 245] |
| 6.7 | 352 | – | CNC[C@@H](O)COc1ccc(Cl)c(-c2nc(-c3c(C)noc3C)c(C)c(N3CC4(CC(O)C4)C3)n2)c1 [Example 246] |

| IC50 (Human CARM1 (PRMT4)) [nM] | IC50 ([1]; Homo sapiens, RKO, 48 h) [nM] | IC50 ([1]; 48 hours) [nM] | SMILES |
| --- | --- | --- | --- |
| 4 | 62 | – | CNC[C@@H](O)COc1ccc(Cl)c(-c2nc(-c3c(C)noc3C)c(C)c(N3CC4=C(CN(CC(F)(F)F)CC4)C3)n2)c1 [Example 247] |
| 2 | 27 | – | CNC[C@@H](O)COc1ccc(Cl)c(-c2nc(-c3c(C)noc3C)c(C)c(N3Cc4ccc(OCCOC)nc4C3)n2)c1 [Example 249] |
| 3.94 | 217 | – | CNC[C@@H](O)COc1ccc(Cl)c(-c2nc(-c3c(C)noc3C)c(C)c(N3CC4(CCC4(F)F)C3)n2)c1 [Example 250] |
| 6.51 | 193 | – | CNC[C@@H](O)COc1ccc(Cl)c(-c2nc(-c3c(C)noc3C)c(C)c(N3CC(C)(COC)C3)n2)c1 [Example 251] |
| 8.01 | 561 | – | CNC[C@@H](O)COc1ccc(Cl)c(-c2nc(-c3c(C)noc3C)c(C)c(N3CC(C)(CO)C3)n2)c1 [Example 252] |
| 2.36 | 29.2 | – | CNC[C@@H](O)COc1ccc(Cl)c(-c2nc(-c3c(C)noc3C)c(C)c(N3Cc4ccc(O[C@@H]5CCOC5)nc4C3)n2)c1 [Example 253] |
| 2.39 | 37.1 | – | CNC[C@@H](O)COc1ccc(Cl)c(-c2nc(-c3c(C)noc3C)c(C)c(N3Cc4ccc(O[C@H]5CCOC5)nc4C3)n2)c1 [Example 254] |
| 7.22 | 377 | – | CNC[C@@H](O)COc1ccc(Cl)c(-c2nc(-c3c(C)noc3C)c(C)c(N3CC4(CN(C(=O)OCCOC)C4)C3)n2)c1 [Example 255] |
| 3.96 | 43.2 | – | CNC[C@@H](O)COc1ccc(Cl)c(-c2nc(-c3c(C)c(Br)nn3C)c(C)c(N3CC4(CC(OC)C4)C3)n2)c1 [Example 256] |
| 2.4 | 22.7 | – | CNC[C@@H](O)COc1ccc(Cl)c(-c2nc(-c3c(C)noc3C)c(C)c(N3CC4=C(CN(C(=O)OC)CC4)C3)n2)c1 [Example 257] |
| 1.83 | 29.9 | – | CNC[C@@H](O)COc1ccc(Cl)c(-c2nc(-c3c(C)noc3C)c(C)c(N3Cc4ccc(N(C)C)nc4C3)n2)c1 [Example 258] |
| 2.17 | 22.9 | – | CNC[C@@H](O)COc1ccc(Cl)c(-c2nc(-c3c(C)noc3C)c(C)c(N3Cc4ccc(N5CC(F)C5)nc4C3)n2)c1 [Example 259] |
| 5.95 | – | 45.5 | CNC[C@@H](O)COc1ccc(Cl)c(-c2nc(-c3c(C)noc3C)c(C)c(N3CC4(CC(OC(C)C)C4)C3)n2)c1 [Example 260] |
| 2.34 | 32.6 | – | CNC[C@@H](O)COc1ccc(Cl)c(-c2nc(-c3c(C)noc3C)c(C)c(N3Cc4cccnc4C3)n2)c1 [Example 262] |
| 5.36 | 90.9 | – | CNC[C@@H](O)COc1ccc(Cl)c(-c2nc(-c3c(C)noc3C)c(C)c(N3CC4(CCC(OC)C4)C3)n2)c1 (some centres unmarked) [Example 263] |
| 4.11 | 51.9 | – | CNC[C@@H](O)COc1ccc(Cl)c(-c2nc(-c3c(C)noc3C)c(C)c(N3CC4(CN(CCC(F)(F)F)C4)C3)n2)c1 [Example 264] |
| 4.2 | 87.7 | – | CNC[C@@H](O)COc1ccc(Cl)c(-c2nc(-c3c(C)c(Cl)nn3C)c(C)c(N3CC4(CN(C(=O)OC)C4)C3)n2)c1 [Example 265] |
| 6.83 | 310 | – | CNC[C@@H](O)COc1ccc(Cl)c(-c2nc(-c3c(Br)cnn3C)c(C)c(N3CC4(CN(C(=O)OC)C4)C3)n2)c1 [Example 266] |
| 8.97 | 121 | – | CNC[C@@H](O)COc1ccc(Cl)c(-c2nc(-c3c(Br)cnn3C)c(C)c(N3CC4(CN(CC(F)(F)F)C4)C3)n2)c1 [Example 267] |
| 1.26 | 1350 | – | CNC[C@@H](O)COc1ccc(Cl)c(-c2nc(-c3c(C)noc3C)c(C)c(N3CC4(CC(N5CCC5)C4)C3)n2)c1 [Example 268] |
